Results from patent US20240294551A1 (AMGEN INC., priority 2022, published 2024).
Structures can show the parent of a compound that is named as a salt. Where two headings read alike, the source gives them in different places.

How the values were obtained:
[1] = test system: AsPC-1 cells; test: AsPC-1 CTG Assay (CellTiter-Glo cell viability); type: cell-based, human; settings: Homo sapiens, ASPC1, 72 h, first value of the cell, read-out: G12D/C/V Cell Proliferation CTG (72 h) AsPC-1
Method in brief: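 IC50 values derive from 4-parameter logistic fits of CellTiter-Glo luminescence, expressed relative to DMSO. Compound dilution series were applied to overnight-seeded AsPC-1 or SW620 cells (RPMI 1640, 10% FBS) for 72 h at 37 °C, 5% CO2.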

[2] = test system: Phosphorylation of ERK1/2 in AsPC-1 cells; test: Phospho-ERK1/2 MSD Assay; type: cell-based, human; settings: Homo sapiens, ASPC1, 2 h
Method in brief: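 Read-out: MSD electrochemiluminescent detection of phosphorylated ERK1/2 in whole-cell lysates, fitted to a 4-parameter logistic curve for IC50. Prior to lysis, AsPC-1 cells (25,000 per well) received a 2 h compound dose-response at 37 °C.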

[3] = molecular target: GDP-bound KRAS protein (aa 1-169), containing both G12D and C118A amino acid substitutions (Homo sapiens (Human), UniProt P01116, C118A/G12D); test: KRAS G12D Coupled Nucleotide Exchange Assay; type: biochemical
[4] = molecular target: His-tagged KRAS G12D protein (Homo sapiens (Human), UniProt P01116, G12D); test: KRAS G12D TR-FRET Assay; type: binding
Method in brief: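 Each incubation ran at room temperature: enzyme with compound for 30 minutes, peptide for one hour, and detection reagents (0.4 nM europium anti-6×His, 5 nM streptavidin-d2) for one hour more. Protein and peptide stocks were each diluted to 20 nM before addition.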

[5] = read-out: 2 h p-ERK (AsPC-1 cells), IC50
[6] = read-out: KRAS G12D Coupled Exchange IC50
[7] = read-out: KRAS G12D Binding IC50
[8] = read-out: 2 h p-ERK (AsPC-1 cells)
[9] = 2 hours compound pre-incubation, read-out: KRAS G12D Coupled Exchange
[10] = TR-FRET, read-out: KRAS G12D Binding

GDP-bound KRAS protein (aa 1-169), containing both G12D and C118A amino acid substitutions, sequence (P01116 other isoform, or with tags, fused parts or gaps G12D/C118A): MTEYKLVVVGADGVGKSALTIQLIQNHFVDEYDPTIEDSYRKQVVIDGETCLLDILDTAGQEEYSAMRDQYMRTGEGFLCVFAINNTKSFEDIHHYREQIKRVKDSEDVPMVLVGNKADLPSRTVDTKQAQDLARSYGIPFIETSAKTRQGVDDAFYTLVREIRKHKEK
His-tagged KRAS G12D protein, sequence (P01116 other isoform, or with tags, fused parts or gaps G12D): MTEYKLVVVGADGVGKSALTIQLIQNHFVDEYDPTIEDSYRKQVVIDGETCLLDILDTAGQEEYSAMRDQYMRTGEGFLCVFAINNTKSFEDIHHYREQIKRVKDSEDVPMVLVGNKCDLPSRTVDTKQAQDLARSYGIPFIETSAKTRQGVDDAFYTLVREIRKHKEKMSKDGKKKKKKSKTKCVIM

IC50 ([1]; AsPC-1, 72 h) [µM] | IC50 [2, 5] [µM] | IC50 [3, 6] [µM] | IC50 [4, 7] [µM] | IC50 ([1]; AsPC-1 cells (G12D), 72 h) [µM] | IC50 [2, 8] [µM] | IC50 [3, 9] [µM] | IC50 [4, 10] [µM] | Compound
 |  |  |  | 0.639 | 0.18 | 0.002 | 0.003 | O=C1CCCCc2c(Cl)cc3[nH]ncc3c2-c2ncc3c(nc(OC[C@@]45CCCN4C[C@H](F)C5)nc3c2F)N2CC[C@@H]3[C@H](C2)N1CC3(F)F [Example 403, (28R,32R)-18-chloro-27,27,33-trifluoro-4-(((2R,7aS)-2-fluorotetrahydro-1H-pyrrolo[1,2-a]pyrrol-7a(5H)-yl)methoxy)-1,3,5,9,14,15,25-heptaazaheptacyclo[23.5.2.1~6,10~.0~2,7~.0~11,19~.0~12,16~.0~28,32~]tritriaconta-2,4,6,8,10(33),11,13,16,18-nonaen-24-one]
0.297 | 0.0134 | 0.002 | 0.005 |  |  |  |  | C[C@@]12COCCN(C1)c1nc(OC[C@@]34CCCN3C[C@H](F)C4)nc3cc(ncc13)-c1c(c(Cl)cc3[nH]ncc13)CCCOC(=O)O2 [Example 346, (26S)-18-chloro-4-(((2R,7aS)-2-fluorotetrahydro-1H-pyrrolo[1,2-a]pyrrol-7a(5H)-yl)methoxy)-26-methyl-23,25,28-trioxa-1,3,5,9,14,15-hexaazahexacyclo[24.4.1.1~6,10~.0~2,7~.0~11,19~.0~12,16~]dotriaconta-2,4,6(32),7,9,11,13,16,18-nonaen-24-one]
 |  |  |  | 0.002 | 0.0012 | 0.003 | 0.007 | O[C@]12C[C@@]3(CCCN(C3)c3nc(OC[C@@]45CCCN4C[C@H](F)C5)nc4c(F)c(ncc34)-c3c(c(Cl)cc4[nH]ncc34)CCc3cnc1o3)C2 [Example 396, (1S,3R)-11-chloro-33-fluoro-25-(((2R,7aS)-2-fluorotetrahydro-1H-pyrrolo[1,2-a]pyrrol-7a(5H)-yl)methoxy)-34-oxa-5,14,15,20,24,26,28-heptaazaoctacyclo[26.3.1.1~1,3~.1~4,7~.1~19,23~.0~10,18~.0~13,17~.0~22,27~]pentatriaconta-4,6,10,12,15,17,19(33),20,22,24,26-undecaen-3-ol]
 |  |  |  | 0.049 | 0.0025 | 0.001 | 0.006 | O[C@H]1C[C@H]2COCCCCc3c(Cl)cc4[nH]ncc4c3-c3ncc4c(nc(OC[C@@]56CCCN5C[C@H](F)C6)nc4c3F)N(C1)C2 [Example 407, (17R,19S)-9-chloro-30-fluoro-24-(((2R,7aS)-2-fluorotetrahydro-1H-pyrrolo[1,2-a]pyrrol-7a(5H)-yl)methoxy)-15-oxa-5,6,21,23,25,29-hexaazahexacyclo[24.3.1.1˜17,21˜.0˜2,10˜.0˜3,7˜.0˜22,27˜]hentriaconta-1(30),2,4,7,9,22,24,26,28-nonaen-19-ol]
0.954 | 0.0605 | 0.003 | 0.005 |  |  |  |  | O=C1N[C@@H]2CCCCN(C2)c2nc(OC[C@@]34CCCN3C[C@H](F)C4)nc3c(F)c(ncc23)-c2c3c(cc4[nH]ncc24)CC[C@H]3CCO1 [Example 301, (16R,22S)-34-fluoro-8-(((2R,7aS)-2-fluorotetrahydro-1H-pyrrolo[1,2-a]pyrrol-7a(5H)-yl)methoxy)-19-oxa-3,7,9,11,17,28,29-heptaazaheptacyclo[20.9.1.1~2,6~.1~11,16~.0~5,10~.0~25,32~.0~27,31~]tetratriaconta-1(31),2(34),3,5,7,9,25(32),26,29-nonaen-18-one]
 |  |  |  | 0.074 | 0.0095 | 0.003 | 0.005 | Fc1c2ncc3c(nc(OC[C@@]45CCCN4C[C@H](F)C5)nc13)N1CCO[C@H](C1)c1coc(n1)CCCc1c(Cl)cc3[nH]ncc3c1-2 [Example 390, (18R)-9-chloro-31-fluoro-25-(((2R,7aS)-2-fluorotetrahydro-1H-pyrrolo[1,2-a]pyrrol-7a(5H)-yl)methoxy)-15,19-dioxa-5,6,22,24,26,30,33-heptaazaheptacyclo[25.3.1.1~14,17~.1~18,22~.0~2,10~.0~3,7~.0~23,28~]tritriaconta-1(31),2,4,7,9,14(33),16,23,25,27,29-undecaene]
 |  |  |  | 0.211 | 0.137 | 0.016 | 0.031 | OC1CCCCc2c(Cl)cc3[nH]ncc3c2-c2ncc3c(nc(OC[C@@]45CCCN4C[C@H](F)C5)nc3c2F)N2CCC[C@@H](C1)C2 (mixture of isomers) [Example 385, bis(2,2,2-trifluoroacetate) salt]

The remaining lines, values behind:

Compound | IC50 ([1]; AsPC-1, 72 h) [µM] | IC50 [2, 5] [µM] | IC50 [3, 6] [µM] | IC50 [4, 7] [µM] | IC50 ([1]; AsPC-1 cells (G12D), 72 h) [µM] | IC50 [2, 8] [µM] | IC50 [3, 9] [µM] | IC50 [4, 10] [µM]
Cc1cc2[nH]ncc2c2c1C[C@@H](C)CCOC[C@@H]1CCCN(C1)c1nc(OC[C@@]34CCCN3C[C@H](F)C4)nc3c(F)c-2ncc13 [Example 250, (12R,17R)-30-fluoro-24-(((2R,7aS)-2-fluorotetrahydro-1H-pyrrolo[1,2-a]pyrrol-7a(5H)-yl)methoxy)-9,12-dimethyl-15-oxa-5,6,21,23,25,29-hexaazahexacyclo[24.3.1.1~17,21~.0~2,10~.0~3,7~.0~22,27~]hentriaconta-1(30),2,4,7,9,22,24,26,28-nonaene] | 1.06 | 0.128 | 0.006 | 0.013 |  |  |  | 
Fc1c2ncc3c(nc(OC[C@@]45CCCN4C[C@H](F)C5)nc13)N1CC(COCCCCc3c(Cl)cc4[nH]ncc4c3-2)CC2(CC2)C1 (stereo partly shown) [Example 228] | 0.487 | 0.181 | 0.008 | 0.012 |  |  |  | 
Cc1cc2[nH]ncc2c2c1CCCCC(=O)N[C@H]1CN(C[C@H]3C[C@H]31)c1nc(OC[C@@]34CCCN3C[C@H](F)C4)nc3c(F)c-2ncc13 [Example 171, (26R,27R,29S)-32-fluoro-4-(((2R,7aS)-2-fluorotetrahydro-1H-pyrrolo[1,2-a]pyrrol-7a(5H)-yl)methoxy)-18-methyl-1,3,5,9,14,15,25-heptaazaheptacyclo[24.4.1.1~6,10~.0~2,7~.0~11,19~.0~12,16~.0~27,29~]dotriaconta-2,4,6,8,10(32),11,13,16,18-nonaen-24-one] | 1.09 | 0.106 | 0.004 | 0.006 |  |  |  | 
Fc1c2ncc3c(nc(OC[C@@]45CCCN4C[C@H](F)C5)nc13)N1CCOC[C@H](COCCCCc3c(Cl)cc4[nH]ncc4c3-2)C1 (single isomer, unassigned) [Example 136] | 0.67 | 0.077 | 0.003 | 0.007 |  |  |  | 
O=C1CCCCc2c(Cl)cc3[nH]ncc3c2-c2ncc3c(nc(OC[C@@]45CCCN4C[C@H](F)C5)nc3c2F)N2CCOCC(C1)C2 (mixture of isomers) [Example 230] | 0.174 | 0.0951 | 0.009 | 0.012 |  |  |  | 
O=C1CCCCc2c(Cl)cc3[nH]ncc3c2-c2ncc3c(nc(OC[C@@]45CCCN4C[C@H](F)C5)nc3c2F)N2CCC3CN1[C@H]3C2 (mixture of isomers) [Example 164] | 3.1 | 0.236 | 0.007 | 0.01 |  |  |  | 
C[C@@]12CCCN(C1)c1nc(OC[C@@]34CCCN3C[C@H](F)C4)nc3c(F)c(ccc13)-c1cc(O)cc3ccc(F)c(c13)CCC(F)C(=O)N2 (mixture of isomers) [Example 17, 2,2,2-trifluoroacetate salt] | 0.405 | 0.046 | 0.007 | 0.011 |  |  |  | 
Fc1c2ncc3c(nc(OC[C@@]45CCCN4C[C@H](F)C5)nc13)N1CCC[C@H](C1)c1noc(n1)CCCc1c(Cl)cc3[nH]ncc3c1-2 [Example 247, (18R)-9-chloro-31-fluoro-25-(((2R,7aS)-2-fluorotetrahydro-1H-pyrrolo[1,2-a]pyrrol-7a(5H)-yl)methoxy)-15-oxa-5,6,16,22,24,26,30,33-octaazaheptacyclo[25.3.1.1~14,17~.1~18,22~.0~2,10~.0~3,7~.0~23,28~]tritriaconta-1(31),2,4,7,9,14(33),16,23,25,27,29-undecaene] | 0.446 | 0.0312 | 0.005 | 0.009 |  |  |  | 
Cc1cc2[nH]ncc2c2c1CCCCC(=O)N[C@]1(C)CCCN(C1)c1nc(OC[C@@]34CCCN3C[C@H](F)C4)nc3c(F)c-2ncc13 [Example 20, (17R)-30-Fluoro-24-(((2R,7aS)-2-fluorotetrahydro-1H-pyrrolo[1,2-a]pyrrol-7a(5H)-yl)methoxy)-9,17-dimethyl-5,6,16,21,23,25,29-heptaazahexacyclo[24.3.1.1˜17,21˜.0˜2,10˜.0˜3,7˜.0˜22,27˜]hentriaconta-1(30),2,4,7,9,22,24,26,28-nonaen-15-one bis(2,2,2-trifluoroacetate)] | 2.22 | 0.823 | 0.022 | 0.02 |  |  |  | 
